# Data taken from patent publication US20170216252A1, “ANTI-BACTERIAL PYRUVATE KINASE MODULATOR COMPOUNDS, COMPOSITIONS, USES AND METHODS” (SIMON FRASER UNIVERSITY, priority 2014, published 2017).
# Like-named read-outs stand apart in the source and are kept apart here.
# How the values were obtained:
# MRSA PK = target: T1, MRSA PK (Staphylococcus aureus, UniProt Q6GG09); test: MRSA PK activity, continuous LDH-coupled assay; type: biochemical, S. aureus (MRSA strain Sanger 252); details: for inhibition at 1 µM / inhibition at 10 µM: read-out: % inhibition at the highest concentration tested (IC50)
# T1 construct: His tag (pET-28a(+) vector) (N); made in house; host or cells: E. coli BL-21 (DE3)
# T1 sequence (Q6GG09 whole entry): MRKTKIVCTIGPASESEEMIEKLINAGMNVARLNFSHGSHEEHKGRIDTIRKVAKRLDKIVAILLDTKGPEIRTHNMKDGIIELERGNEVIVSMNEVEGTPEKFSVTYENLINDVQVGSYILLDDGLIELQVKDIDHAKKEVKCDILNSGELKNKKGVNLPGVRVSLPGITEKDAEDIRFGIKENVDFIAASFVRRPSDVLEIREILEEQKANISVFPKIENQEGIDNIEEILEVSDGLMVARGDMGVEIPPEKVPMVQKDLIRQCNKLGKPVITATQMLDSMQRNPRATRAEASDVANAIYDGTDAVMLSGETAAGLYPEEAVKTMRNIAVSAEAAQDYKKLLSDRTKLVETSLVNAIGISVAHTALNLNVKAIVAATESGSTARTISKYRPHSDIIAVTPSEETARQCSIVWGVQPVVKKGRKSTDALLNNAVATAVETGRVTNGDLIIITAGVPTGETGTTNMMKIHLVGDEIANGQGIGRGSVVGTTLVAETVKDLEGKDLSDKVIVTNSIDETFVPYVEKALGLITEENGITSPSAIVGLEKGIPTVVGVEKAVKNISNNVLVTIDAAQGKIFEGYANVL
# Source text: Genomic DNA of MRSA strain Sanger 252 extracted using DNeasy Tissue Kit™ (Qiagen™) was used as a template to generate the His-tagged MRSA PK. Human cDNA from MCF-7 breast cancer cell line (courtesy of Dr. J Wong, BC Cancer Research Center (Vancouver, Canada) was used as a template to generate the full-length human M2 PK enzyme. The following primer sets were used creating appropriate restriction sites (NdeI and XhoI sites underlined): For cloning of MRSA PK: M27F 5′-[…]-3′ and M27R 5′-[…]-3′, for cloning of human M2 PK isoform: hM2F 5′-[…]-3′ and hM2R 5′-[…]-3′. The resulting PCR fragments for each construct were cloned into the NdeI and XhoI unique sites of the bacterial expression vector pET-28a (+) (Novagen™). […] The sequence and the correct reading frame of all constructs were verified by sequencing. Human M1, R and L PK constructs in pET-28-a(+) vectors (courtesy of Dr. L. Cantley, Harvard Medical, School (Boston, USA)) were used to generate relevant recombinant His-tagged human PK isoforms.
# MRSA and human constructs in pET-28a(+) were used to express relevant recombinant PK proteins in E. coli BL-21 (DE3). The proteins were expressed and purified using Ni-NTA agarose (Qiagen™) according to the manufacturer's protocol. Briefly, cells were grown to an absorbance of 0.4-0.5 at 600 nm in 2×YT medium, then induced with 0.1 mM IPTG for 3 h at 20° C. Cells were lysed by sonication on ice (3×10-s bursts with a 30-s recovery between bursts) in lysis buffer (0.2 mg/ml lysozyme, 50 mM Tris pH 7.5, 10 mM MgCl2, 200 mM NaCl, 100 mM KCl, 10% glycerol, 10 mM imidazole, 0.5% NP-40 and 1 mM DTT containing Complete™ protease inhibitor). Cell lysates were cleared by centrifugation (18,000×g in a Beckman™ JA-20 rotor) for 20 min at 4° C. and PK isoforms were purified by batch binding to Ni-NTA resin. The resins were then packed in columns (1×2 cm) and washed with 400 column volumes lysis buffer containing 30 mM imidazole. His-tagged PK isoforms were eluted with the same buffer containing 300 mM imidazole. The proteins were dialyzed overnight at 4° C. against 2000 volumes of ice-cold 30 mM Tris pH 7.5, 25 mM KCl, 5 mM MgCl2, 10% glycerol and 1 mM DTT to remove imidazole. All purification steps were done at 4° C.; enzymes were flash-frozen and stored at −70° C. […] Purity and physical integrity of proteins were assessed using SDS-polyacrylamide gel electrophoresis (SDS-PAGE) followed by coomassie blue staining. Protein concentration was estimated by Bradford assay (Bio-Rad Protein Assay™) using bovine serum albumin as a standard.
# Candidate MRSA PK inhibitors were assayed for their ability to inhibit enzymatic activities of MRSA and human PKs. PK activity was determined using a continuous assay coupled to lactate dehydrogenase (LDH) in which the change in absorbance at 340 nm owing to oxidation of NADH was measured using a Benchmark Plus™ microplate spectrophotometer (Bio-Rad Laboratories, Hercules, Calif.). […] Reactions were initiated by the addition of 15 nM of one of the PK enzymes. PK activity proportional to the rate of change at 340 nm was expressed as specific activity (μmol/min/mg), which is defined as the amount of PK that catalyzes the formation of one micromole of either product per minute. Inhibitors were dissolved in DMSO with the final concentration of the solvent never exceeding 1% of the assay volume. IC50 values were calculated by curve fitting on a four-parameter dose-response model with variable slope using Graphpad Prism 5.0™ (GraphPad™ Software Inc., La Jolla, Calif.). […] Reactions were performed at 30° C. for up to 5 min. All values determined represent at least two measurements, in triplicate (Tables 1-6) or duplicate unless mentioned otherwise.
# S. aureus ATCC 29213 = test: In vitro susceptibility, broth microdilution MIC; type: cell-based, Staphylococcus aureus
# Experimental: The antimicrobial activities of PK inhibitor candidates were determined using the 96-well microtiter standard 2-fold serial broth microdilution method as described by CLSI (formerly NCCLS) with the various gram-positive and gram-negative bacteria species mentioned above. Bacteria from a single colony were grown, overnight in either BHI Broth (VRE), mueller hinton broth (S. aureus 29213; MRSA USA400) or L-broth (E. coli, P. aeruginosa, S. typhimuriu, K. Pneumonia and A. baumannii). […] Culture plates were incubated for 18-24 h at 37° C., and optical density at 600 nm (OD600) was measured using a Benchmark Plus™ microplate spectrophotometer (Bio-Rad™). The absorbance control values for the series containing CAMHB and inhibitor were subtracted as background from the corresponding infected wells. The MIC was defined as the lowest concentration of test compound leading to complete inhibition of cell growth in relationship to compound-free control wells as determined by optical density. […] All assays were run in triplicate (Tables 1-6) or duplicate. Experiments were replicated at least twice to verify reproducibility using the above conditions.
# [1] = Staphylococcus aureus, ATCC29213, Table 8, tested at least in duplicate, differing values all given, read-out: MIC
# [2] = Staphylococcus aureus, ATCC29213, Tables 1-6 and text, minimum concentration to give >98% inhibition of growth, read-out: MIC
# [3] = Tables 1-6, 2 mM ADP, 10 mM PEP, 15 nM PK, read-out: IC50
SMILES,IC50 (MRSA PK) [nM],MIC (S. aureus ATCC 29213; [1]) [µg/mL],MIC (S. aureus ATCC 29213; [2]) [µg/mL],other results
"Brc1ccc2cc(CSCc3ccccc3)[nH]c2c1 [Compound 149, 2-((Benzylthio)methyl)-6-bromo-1H-indole]",> 1000,> 64,,
"Brc1ccc2cc(-c3ccc(-c4cc5ccc(Br)cc5[nH]4)cc3)[nH]c2c1 [Compound 33a, 1,4-bis(6-bromo-1H-indol-2-yl)benzene]",,,> 64,inhibition at 1 µM (MRSA PK): 54%
"Clc1cc(Cl)cc(/C=C/c2cc3ccc(Br)cc3[nH]2)c1 [Compound 95, (E)-6-Bromo-2-(3,5-dichlorostyryl)-1H-indole]",< 50,7.1,,"MIC (S. aureus ATCC 29213; Table 8, tested at least in duplicate, differing values all given): 8 µg/mL"
"Brc1ccc2[nH]c(-c3cc4cc(Br)c(Br)cc4[nH]3)cc2c1 [Compound 10m, 5,5′,6-Tribromo-1H,1′H-2,2′-biindole]",,,1,IC50 (MRSA PK; [3]): 1.6 nM
"O=C(Nc1ccc(Br)cc1)c1cc2ccc(Br)cc2s1 [Compound 71, 6-bromo-N-(4-bromophenyl)benzo[b]thiophene-2-carboxamide]",,,> 64,inhibition at 10 µM (MRSA PK): 55%
"CC(=O)c1c(CCc2cn3c(n2)CCCC3)[nH]c2cc(Br)ccc12 [Compound 127, 1-(6-Bromo-2-(2-(5,6,7,8-tetrahydroimidazo[1,2-a]pyridin-2-yl)ethyl)-1H-indol-3-yl)ethan-1-one]",> 100000,64,,
"Brc1ccc2cc(/C=C/c3cc4ccc(Br)cc4[nH]3)[nH]c2c1 [Compound 27b, (E)-1,2-bis(6-bromo-1H-indol-2-yl)ethane]",,,> 64,IC50 (MRSA PK; [3]): 3.9 nM
"O=C(c1cc2ccc(Br)cc2[nH]1)c1cc(Br)ccc1O [Compound 87, (6-Bromo-1H-indol-2-yl)(5-bromo-2-hydroxyphenyl)methanone]",,,> 64,inhibition at 10 µM (MRSA PK): 58%
"O=C(c1c(CCc2ccc(Cl)nc2)[nH]c2cc(Br)ccc12)C(F)(F)F [Compound 173, 1-(6-Bromo-2-(2-(6-chloropyridin-3-yl)ethyl)-1H-indol-3-yl)-2,2,2-trifluoroethanone]",> 1000,> 64,,
"Brc1ccc2cc(-c3ccc(-c4cc5ccc(Br)cc5[nH]4)s3)[nH]c2c1 [Compound 33b, 2,5-bis(6-bromo-1H-indol-2-yl)thiophene]",,,> 64,inhibition at 1 µM (MRSA PK): 28%
"O=C(Nc1nc2ccc(Br)cc2s1)c1cc(Br)cc(Br)c1O [Compound 85, 3,5-dibromo-N-(6-bromobenzo[d]thiazol-2-3/1)-2-hydroxybenzamide]",4.1,,1,
"COC(=O)c1c(C(=O)Nc2ccc(Cl)cn2)[nH]c2cc(Br)ccc12 [Compound 137, Methyl 6-bromo-2-((5-chloropyridin-2-yl)carbamoyl)-1H-indole-3-carboxylate]",,> 64,,EC50 (MRSA PK): 13.2 nM
"Brc1ccc2cc(CSc3nc4ccccc4[nH]3)[nH]c2c1 [Compound 148, 2-(((6-Bromo-1H-indol-2-yl)methyl)thio)-1H-benzo[d]imidazole]",> 1000,32,,
"COC(=O)c1c(C(=O)Nc2ccc(Cl)nc2)[nH]c2cc(Br)ccc12 [Compound 138, Methyl 6-bromo-2-((6-chloropyridin-3-yl)carbamoyl)-1H-indole-3-carboxylate]",< 50,> 64,,
"O=C(c1cc2ccc(Br)cc2[nH]1)c1cc2ccccc2cc1O [Compound 42, (6-Bromo-1H-indol-2-yl)(3-hydroxynaphthalen-2-yl)methanone]",,,> 64,inhibition at 10 µM (MRSA PK): 72%
"Brc1ccc(-c2ccc(-c3cncc(-c4cc5ccccc5[nH]4)n3)cc2)cc1 [Compound 61, 2-(6-(4′-Bromo-[1,1′-biphenyl]-4-yl)pyrazin-2-yl)-1H-indole]",,,> 64,inhibition at 0.1 µM (MRSA PK; read-out: % inhibition (IC50)): 61%
"CC(C)C(=O)c1c(CCc2ccc(Cl)cc2)[nH]c2cc(Br)ccc12 [Compound 39c, 1-(6-bromo-2-(4-chlorophenethyl)-1H-indol-3-yl)-2-methylpropan-1-one]",28,,4,
"Brc1ccc2cc(/C=C/c3ccc4ccccc4n3)[nH]c2c1 [Compound 101, (E)-2-(2-(6-bromo-1H-indol-2-yl)vinyl)quinoline]",> 1000,> 64,> 64,
"O=C1c2ccc(Br)cc2C(=O)N1c1nc2ccc(Br)cc2s1 [Compound 65, 5-bromo-2-(6-bromobenzo[d]thiazol-2-yl)isoindoline-1,3-dione]",,,> 64,inhibition at 10 µM (MRSA PK): 76%
"COC(=O)c1c(C(=O)Nc2ccc(OC)nc2)[nH]c2cc(Br)ccc12 [Compound 135, Methyl 6-bromo-2-((6-methoxypyridin-3-yl)carbamoyl)-1H-indole-3-carboxylate]",,> 64,,EC50 (MRSA PK): 31.7 nM
"O=C(O)c1c(/C=C/c2ccc(Cl)nc2)[nH]c2cc(Br)ccc12 [Compound 152, (E)-6-Bromo-2-(2-(6-chloropyridin-3-yl)vinyl)-1H-indole-3-carboxylic acid]",> 1000,64,,
"Brc1ccc2cc(-c3ccc(-c4ccn[nH]4)s3)[nH]c2c1 [Compound 81, 2-(5-(1H-Pyrazol-5-yl)thiophen-2-yl)-6-bromo-1H-indole]",74.5,,0.5,
"O=C(Nc1nc2ccc(Br)cc2s1)c1cc(Br)ccc1O [Compound 51, 5-Bromo-N-(6-bromobenzo[d]thiazol-2-yl)-2-hydroxybenzamide]",,,> 64,IC50 (MRSA PK; [3]): 3 nM
"O=C(Nc1nc2ccc(Br)cc2[nH]1)c1cc(Br)ccc1O [Compound 78, 5-Bromo-N-(6-bromo-1H-benzo[d]imidazol-2-yl)-2-hydroxybenzamide]",11.3,,4,
"COc1ccc2[nH]c(-c3[nH]c4cc(Br)ccc4c3C(=O)C(F)(F)F)cc2c1 [Compound 179, 1-(6-bromo-5′-methoxy-1H,1′H-[2,2′-biindol]-3-yl)-2,2,2-trifluoroethan-1-one]",< 50,64,,
"Fc1ccc(/C=C/c2cc3ccc(Br)cc3[nH]2)cc1 [Compound 103, (E)-6-Bromo-2-(4-fluorostyryl)-1H-indole]",> 1000,> 64,,
"O=[N+]([O-])c1cc(/C=C/c2cc3ccc(Br)cc3[nH]2)ccc1Cl [Compound 97, (E)-6-Bromo-2-(4-chloro-3-nitrostyryl)-1H-indole]",,> 64,,EC50 (MRSA PK): 8.6 nM
